Assay [1] deals with CHO. Nature of the assay: Increase in labeling efficiency in CHO cells expressing GABA B1-ASA receptor mutant after UV irradiation. It counts as cell-based.
Assay [2] has as its system CHO. Nature of the assay: Binding affinity at intracellular GABA B receptor expressed in CHO cells at 1uM before 15 mins of UV irradiation by […] microscopy based photoaffinity labeling. It counts as cell-based.
Assay [3] concerns CHO. Put plainly: Displacement of CGP-64213 from GABA B1-ASA receptor mutant expressed in CHO cells at 1 uM. Type of assay: cell-based.
Assay [4] deals with CHO. Nature of the assay: Binding affinity at cell surface GABA B receptor expressed in CHO cells at 1 uM before 15 mins of UV irradiation by […] microscopy based photoaffinity labeling.
A short description of assay [5]: Antagonist activity at GABA B receptor expressed in HEK293 cells assessed as inhibition of GABA-induced IP production after 15 mins. To be noted: HEK293, 0.25 h. Type of assay: functional, cell-based.
For assay [6], the system named is CHO. Put plainly: Binding affinity at intracellular DsRed2-tagged GABA B receptor expressed in CHO cells at 1 uM by fluorescence confocal microscopy based photoaffinity labeling. It counts as cell-based.
In another assay the test system is HEK293. Put plainly: Antagonist activity at GABA B receptor expressed in HEK293 cells assessed as inhibition of GABA-induced IP production at 10 uM after 15 mins. It counts as functional, cell-based.

Active and inactive are the calls of the source. The rule behind the calls is not given here.

As to `CC1=CC(C)=[N+]2C1=C(CCCC(=O)NCc1cn(CC(=O)NCCOCCOCCOc3cc(C4(C(F)(F)F)N=N4)ccc3C(=O)NCCCCCP(=O)(O)C[C@@H](O)CN[C@H](C)c3cccc(C(=O)O)c3)nn1)c1c(C)cc(C)n1[B-]2(F)F`, the result in the assay with CHO [1], in the assay with CHO [3] and in the assay with CHO [4] was Active. Further, the outcome with CHO [2] and with CHO [6] was inactive. In assay [5], the concentration for half-maximal inhibition (IC50) stood at 1030 nM.
`CC1=CC(C)=[N+]2C1=C(CCCC(=O)NCCOCCOCCOc1cc(C3(C(F)(F)F)N=N3)ccc1CO)c1c(C)cc(C)n1[B-]2(F)F`: the outcome in the assay with HEK293 and in the assay with CHO [3] was inactive.

These data come from ChEMBL document CHEMBL1150319, “Activity-based probe for specific photoaffinity labeling gamma-aminobutyric acid B (GABAB) receptors on living cells: design, synthesis, and biological evaluation” (J Med Chem, 2008).
